Experiment: refractive index (other wavelength) (dimensionless); xn = mol fraction of the nth substance listed
Conditions: 101 kPa, Liquid, Standard Abbe refractometry

CC(C)OC(C)C [diisopropyl ether] + CC(C)O
refractive index
Conditions | Wavelength=404.7 nm | Wavelength=435.8 nm | Wavelength=486.1 nm | Wavelength=546.1 nm | Wavelength=587.6 nm | Wavelength=589.3 nm | Wavelength=632.8 nm | Wavelength=644 nm | Wavelength=706.5 nm
313.15 K, x1 = 0.0277 | – | – | – | – | – | 1.36835 | 1.36708 | 1.36678 | 1.36533
313.15 K, x1 = 0.0507 | – | – | – | – | – | 1.36828 | 1.367 | 1.3667 | 1.36524
313.15 K, x1 = 0.051 | – | – | – | – | – | 1.36822 | 1.36696 | 1.36665 | 1.3652
313.15 K, x1 = 0.0717 | – | – | – | – | – | 1.36787 | 1.36659 | 1.36629 | 1.36485
313.15 K, x1 = 0.1528 | – | – | – | – | – | 1.36718 | 1.3659 | 1.36561 | 1.36418
313.15 K, x1 = 0.1553 | – | – | – | – | – | 1.36718 | 1.3659 | 1.36561 | 1.36418
313.15 K, x1 = 0.1938 | – | – | – | – | – | 1.36694 | 1.36566 | 1.36537 | 1.36394
313.15 K, x1 = 0.2029 | – | – | – | – | – | 1.3664 | 1.36512 | 1.36482 | 1.36337
313.15 K, x1 = 0.245 | – | – | – | – | – | 1.36591 | 1.36465 | 1.36436 | 1.36294
313.15 K, x1 = 0.297 | – | – | – | – | – | 1.36507 | 1.36381 | 1.36351 | 1.36209
313.15 K, x1 = 0.2973 | – | – | – | – | – | 1.36529 | 1.36401 | 1.36372 | 1.3623
313.15 K, x1 = 0.3068 | – | – | – | – | – | 1.36504 | 1.36377 | 1.36347 | 1.36204
313.15 K, x1 = 0.398 | – | – | – | – | – | 1.3637 | 1.36244 | 1.36213 | 1.36071
313.15 K, x1 = 0.4609 | – | – | – | – | – | 1.36297 | 1.36172 | 1.36142 | 1.35999
313.15 K, x1 = 0.5434 | – | – | – | – | 1.36211 | 1.36206 | 1.36081 | 1.36051 | 1.35908
313.15 K, x1 = 0.6032 | – | – | – | – | 1.36136 | 1.3613 | 1.36007 | 1.35977 | 1.35834
313.15 K, x1 = 0.6371 | – | – | – | – | 1.36099 | 1.36094 | 1.3597 | 1.3594 | 1.358
313.15 K, x1 = 0.701 | – | – | – | – | 1.36025 | 1.36019 | 1.35895 | 1.35865 | 1.35723
313.15 K, x1 = 0.754 | – | – | – | – | 1.35981 | 1.35976 | 1.35851 | 1.35821 | 1.35681
313.15 K, x1 = 0.791 | – | – | – | – | 1.35941 | 1.35936 | 1.35812 | 1.35782 | 1.35641
313.15 K, x1 = 0.8296 | – | – | – | – | 1.35902 | 1.35897 | 1.35772 | 1.35742 | 1.35602
313.15 K, x1 = 0.8864 | – | – | – | – | 1.3589 | 1.35885 | 1.35758 | 1.35729 | 1.35589
313.15 K, x1 = 0.8903 | – | – | – | – | 1.35833 | 1.35827 | 1.35704 | 1.35674 | 1.35534
313.15 K, x1 = 0.9113 | – | – | – | – | 1.35809 | 1.35802 | 1.35679 | 1.3565 | 1.3551
313.15 K, x1 = 0.9547 | – | – | – | – | 1.35761 | 1.35756 | 1.35631 | 1.35601 | 1.3546
313.15 K, x1 = 0.973 | – | – | – | – | 1.35727 | 1.35722 | 1.35599 | 1.3557 | 1.35426
313.15 K, x1 = 0.9771 | – | – | – | – | 1.35715 | 1.3571 | 1.35587 | 1.35587 | 1.35416
313.15 K, x1 = 1 | – | – | – | – | 1.357 | 1.35694 | 1.35572 | 1.35543 | 1.35401
318.15 K, x1 = 0.0277 | 1.37668 | 1.37373 | 1.37036 | 1.36758 | 1.36611 | 1.36605 | 1.36479 | 1.36448 | 1.36305
318.15 K, x1 = 0.0507 | 1.37662 | 1.37367 | 1.3703 | 1.36752 | 1.36604 | 1.36598 | 1.36472 | 1.36443 | 1.363
318.15 K, x1 = 0.051 | 1.37654 | 1.3736 | 1.37024 | 1.36745 | 1.36598 | 1.36592 | 1.36464 | 1.36435 | 1.36292
318.15 K, x1 = 0.0717 | 1.37616 | 1.37322 | 1.36986 | 1.36708 | 1.36563 | 1.36557 | 1.36428 | 1.36398 | 1.36256
318.15 K, x1 = 0.1528 | 1.3755 | 1.37255 | 1.36919 | 1.36641 | 1.36495 | 1.36489 | 1.36364 | 1.36335 | 1.3619
318.15 K, x1 = 0.1553 | 1.3755 | 1.37255 | 1.36919 | 1.36641 | 1.36495 | 1.36489 | 1.36364 | 1.36335 | 1.3619
318.15 K, x1 = 0.1938 | 1.37525 | 1.37231 | 1.36894 | 1.36618 | 1.3647 | 1.36465 | 1.36338 | 1.36309 | 1.36166
318.15 K, x1 = 0.2029 | 1.37457 | 1.37164 | 1.36826 | 1.36546 | 1.36403 | 1.36398 | 1.36273 | 1.36243 | 1.361
318.15 K, x1 = 0.245 | 1.374 | 1.37107 | 1.36775 | 1.36498 | 1.36354 | 1.36348 | 1.36223 | 1.36194 | 1.36053
318.15 K, x1 = 0.297 | 1.37308 | 1.37014 | 1.36682 | 1.36402 | 1.36259 | 1.36254 | 1.36131 | 1.36101 | 1.35958
318.15 K, x1 = 0.2973 | 1.37334 | 1.3704 | 1.36706 | 1.36427 | 1.36283 | 1.36278 | 1.36153 | 1.36123 | 1.35982
318.15 K, x1 = 0.3068 | 1.37306 | 1.37013 | 1.36679 | 1.36402 | 1.3626 | 1.36255 | 1.36129 | 1.36098 | 1.35954
318.15 K, x1 = 0.398 | 1.37184 | 1.36891 | 1.36558 | 1.36283 | 1.36139 | 1.36134 | 1.36008 | 1.35978 | 1.35836
318.15 K, x1 = 0.4609 | 1.37087 | 1.36796 | 1.36464 | 1.36184 | 1.36044 | 1.36036 | 1.35912 | 1.35883 | 1.3574
318.15 K, x1 = 0.5434 | 1.36988 | 1.36693 | 1.36363 | 1.36086 | 1.35943 | 1.35938 | 1.35814 | 1.35784 | 1.35643
318.15 K, x1 = 0.6032 | 1.36911 | 1.36618 | 1.36282 | 1.36011 | 1.35865 | 1.3586 | 1.35735 | 1.35707 | 1.35568
318.15 K, x1 = 0.6371 | 1.36872 | 1.36578 | 1.36247 | 1.35971 | 1.35829 | 1.35824 | 1.35701 | 1.35671 | 1.35531
318.15 K, x1 = 0.701 | 1.36791 | 1.36501 | 1.36166 | 1.35892 | 1.35749 | 1.35743 | 1.35619 | 1.35591 | 1.35452
318.15 K, x1 = 0.754 | 1.36743 | 1.36453 | 1.36123 | 1.35847 | 1.35706 | 1.357 | 1.35577 | 1.35547 | 1.35407
318.15 K, x1 = 0.791 | 1.36699 | 1.36408 | 1.3608 | 1.35802 | 1.35663 | 1.35658 | 1.35537 | 1.35507 | 1.35364
318.15 K, x1 = 0.8296 | 1.36655 | 1.36364 | 1.36034 | 1.3576 | 1.35619 | 1.35614 | 1.35491 | 1.35461 | 1.3532
318.15 K, x1 = 0.8864 | 1.36644 | 1.36355 | 1.36022 | 1.35745 | 1.35605 | 1.35599 | 1.35478 | 1.35448 | 1.35309
318.15 K, x1 = 0.8903 | 1.36584 | 1.36294 | 1.35967 | 1.35689 | 1.35548 | 1.35543 | 1.35421 | 1.35391 | 1.35251
318.15 K, x1 = 0.9113 | 1.36554 | 1.36264 | 1.3594 | 1.35663 | 1.35521 | 1.35515 | 1.35395 | 1.35366 | 1.35225
318.15 K, x1 = 0.9547 | 1.3651 | 1.36222 | 1.35891 | 1.35618 | 1.35475 | 1.35469 | 1.35346 | 1.35317 | 1.3518
318.15 K, x1 = 0.973 | 1.3647 | 1.36182 | 1.35854 | 1.3558 | 1.35439 | 1.35433 | 1.35311 | 1.35281 | 1.35143
318.15 K, x1 = 0.9771 | 1.36468 | 1.36178 | 1.35849 | 1.35575 | 1.35433 | 1.35427 | 1.35304 | 1.35276 | 1.35139
318.15 K, x1 = 1 | 1.36447 | 1.36157 | 1.35832 | 1.35556 | 1.35416 | 1.35411 | 1.3529 | 1.35259 | 1.3512

Reference: the NIST ThermoML archive (doi:10.1016/j.fluid.2014.09.014)
